These results are taken from EPA's ToxValDB 9.5 (doi:10.2903/j.efsa.2018.5152).

SMILES strings stand for the structures. Where only a bound is given, the exact number is not on record here.

One data set concerns Apis mellifera. Particulars: acute, mortality.
The next data set relates to Colinus virginianus. The following applies: chronic.
The test system of another data set is Typhlodromus pyri. The data set can be described thus: LR50; higher = less toxic. The following applies: not reported; mortality.
In a further data set the test system is Oncorhynchus mykiss. The following applies: acute; duration: 96 hours; mortality.
The subject of a further data set is Aphidius rhopalosiphi. The data set can be described thus: LR50; higher = less toxic. The following applies: not reported; mortality.
A further data set deals with Tagia sp. The following applies: chronic/long-term; duration: 28 days; reproduction.
For data set [1] the following is noted: short-term; duration: 28 days; reproduction.

In turn, `O.O.[Cu]` [Copper hydroxide (Cu(OH)2)] displayed an LD50 with Apis mellifera (dermal) of 44.5 µg/piece. The compound further gave an NOEL with Colinus virginianus of 5.05 mg/kg-day. Moreover, in the data set with Daphnia magna (acute, duration: 48 hours, mortality), the LC50 worked out at 0.0266 µg/mL. The same compound gave an LR50 in the data set on Typhlodromus pyri of over 14900 g/ha.

Turning to `[Cl-].[Cu+2].[Cu+2].[OH-].[OH-].[OH-]` [Dicopper chloride trihydroxide], the LD50 was found to be 44.3 µg/piece in the data set with Apis mellifera (dermal) and 12.1 µg/piece with Apis mellifera (oral, unspecified). Further, in the data set with Daphnia magna (chronic/long-term, duration: 21 days, reproduction), the NOEC turned out to be 0.0076 mg/L. The same compound gave an LR50 in the data set with Typhlodromus pyri of over 14900 g/ha.

In turn, `[Cu+].[Cu+].[O-2]` [Cuprous oxide] displayed an LC50 in the data set with Oncorhynchus mykiss of 0.207 µg/mL. The LR50 was 39200 g/ha in the data set with Aphidius rhopalosiphi and over 26100 g/ha in the data set with Typhlodromus pyri.

For the compound `[Cl][Cu][Cl]` [Copper(II) chloride], the NOEC in the data set with Tagia sp. was 8.4 mg/kg; in data set [1], 16.2 mg/kg-day.
